Assay results as given in patent US6727237B2, “Inhibitors of bacterial NAD synthetase” (priority 1998, dated 2004).
Where two headings read alike, the source gives them in different places.

Target: T1, bacterial NAD synthetase enzyme (Bacillus subtilis, UniProt P08164)
T1 sequence (P08164 2-272 limits assumed): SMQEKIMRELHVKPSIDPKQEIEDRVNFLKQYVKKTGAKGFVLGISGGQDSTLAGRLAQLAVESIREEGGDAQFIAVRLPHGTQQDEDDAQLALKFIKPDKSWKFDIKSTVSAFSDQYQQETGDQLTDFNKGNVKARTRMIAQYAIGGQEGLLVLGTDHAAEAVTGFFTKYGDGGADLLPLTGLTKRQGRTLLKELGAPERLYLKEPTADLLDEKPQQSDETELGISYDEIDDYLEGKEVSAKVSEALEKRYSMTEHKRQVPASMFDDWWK
Assay: biochemical
Assay type: biochemical

[1] = compound at 0.2 mM (Table 312B)
[2] = compound at 0.2 mM (Table 312A)
[3] = NAD synthetase enzyme inhibition, read-out: IC50 of Compounds

## CN(C)c1ccc(CC(=O)OCCCCCCCCOc2ccccc2C=CC(=O)c2ccccc2)cc1 [Compound 1038]
[1]
  % Inhibition: 22%

## FC(F)(F)c1ccc2cc(CCCCCCCC[n+]3cccc4ccccc43)[nH]c2c1 [Compound 401]
[2]
  % Inhibition: 14.26%

## C[n+]1cccc(C(=O)OCCCCCCCCOc2ccc(C=CC(=O)c3ccccc3)cc2)c1 [compound 1063]
[1]
  % Inhibition: 32%

## c1ccc2c[n+](CCCc3cc4ccccc4[nH]3)ccc2c1 [Compound 498]
[2]
  % Inhibition: 47.31%

## COC(=O)c1ccc2[nH]c(CCCC[n+]3cccc4ccccc43)cc2c1 [Compound 487]
Compound at 0.1 mM (Table 314)
  % Inhibition: 9.88%

## O=C(O)c1ccc2[nH]c(CCCCCCC[n+]3cccc4ccccc43)cc2c1 [Compound 496]
[2]
  % Inhibition: 36.97%

## C[n+]1cccc(CC(=O)OCCCCCCCCc2cc3ccc(C(F)(F)F)cc3[nH]2)c1 [Compound 930]
Compound at 0.25 mM
  % Inhibition: 96.7%

## C[N+](C)(C)c1ccc(CC(=O)OCCCCCCCCOc2ccc(C(=O)c3ccccc3)cc2)cc1 [Compound 1088]
[1]
  % Inhibition: 100%

## c1ccc(Oc2ccc3[nH]c(CCCCCC[n+]4ccc5ccccc5c4)cc3c2)cc1 [Compound 567]
[2]
  % Inhibition: 22.51%

## COc1ccc2[nH]c(CCCCCCC[n+]3cccc4ccccc43)cc2c1 [Compound 484]
[2]
  % Inhibition: 39.95%

## C[N+](C)(C)c1ccc(CC(=O)OCCCCCCCCOc2ccccc2C(N)=O)cc1 [Compound 1080]
  IC50: 100 µM
  inhibition at 200 µM: 83%

## CC(=O)c1cccc(OCCCCCCCCOC(=O)c2cccnc2)c1 [Compound 1015]
[1]
  % Inhibition: 15%

## C[n+]1cccc(C(=O)OCCCCCCCCc2cc3cc(Oc4ccccc4)ccc3[nH]2)c1 [Compound 918]
Compound at 0.25 mM
  % Inhibition: 98.6%

## CC(C)c1ccc2[nH]c(CCCCOC(=O)c3cc[n+](C)cc3)cc2c1 [Compound 904]
Compound at 0.1 mM (Table 314)
  % Inhibition: 47.68%

## COC(=O)c1cc2cc(OCc3ccccc3)ccc2n1CCCCCCCOC(=O)c1ccc(CN(C)C)cc1 [Compound 1096]
[3]
  IC50: 68.9 µM
[1]
  % Inhibition: 140%

## O=[N+]([O-])c1ccc2[nH]c(CCCCC[n+]3ccccc3)cc2c1 [Compound 332]
Compound at 0.1 mM (Table 314)
  % Inhibition: 12.27%

## O=C(c1ccccc1)c1ccc2[nH]c(CCCCCCC[n+]3ccccc3)cc2c1 [Compound 358]
[2]
  % Inhibition: 23.19%

## O=C(O)c1ccc2[nH]c(CCCCCCCC[n+]3cccc4ccccc43)cc2c1 [Compound 497]
[2]
  % Inhibition: 29.10%

## Cc1ccc2[nH]c(CCCCCCC[n+]3ccc4ccccc4c3)cc2c1 [Compound 514]
[2]
  % Inhibition: 22.32%

## O=C(O)c1ccc2[nH]c(CCCCCCCC[n+]3ccccc3)cc2c1 [Compound 389]
[2]
  % Inhibition: 12.44%

## Fc1cc(F)c2[nH]c(CCCC[n+]3ccccc3)cc2c1 [Compound 301]
[2]
  % Inhibition: 6.12%

## COc1ccccc1OCCCCCCCCOC(=O)c1cccnc1 [Compound 1012]
[1]
  % Inhibition: 2%

## C[n+]1cccc(C(=O)OCCCCCCn2ccc3ccccc32)c1 [Compound 967]
[2]
  % Inhibition: 19.51%

## CC(=O)c1ccc2[nH]c(CCC[n+]3ccc4ccccc4c3)cc2c1 [Compound 582]
[2]
  % Inhibition: 6.13%

## Fc1ccc2[nH]c(CCCCCCC[n+]3ccccc3)cc2c1 [Compound 346]
Compound at 0.1 mM (Table 314)
  % Inhibition: 42.57%

## c1cc[n+](CCCCCCCCc2cc3ccccc3[nH]2)cc1 [Compound 287]
[2]
  % Inhibition: 16.01%

## C[n+]1cccc(C(=O)OCCCCCCCCOc2cccc([N+](=O)[O-])c2)c1 [Compound 1065]
  IC50: 37.5 µM
  inhibition at 200 µM: 81%

## O=C(O)/C=C/c1cn(CCCC[n+]2cccc3ccccc32)c2ccccc12 [Compound 154]
Compound at 0.1 mM (Table 314)
  % Inhibition: 9.24%

## CC(C)c1ccc2[nH]c(CCCCCCCOC(=O)c3cccc([N+](C)(C)C)c3)cc2c1 [Compound 875]
  IC50: 45 µM
  inhibition at 100 µM: 93.6%

## O=C(OCCCCCCCn1ccc2ccccc21)c1cccnc1 [Compound 944]
Compound at 0.05 mM
  % Inhibition: 2.06%

## CC(C)c1ccc2[nH]c(CCCCCCCCOC(=O)c3cccc([N+](C)(C)C)c3)cc2c1 [Compound 876]
  IC50: 75 µM
  inhibition at 100 µM: 95.4%

## Fc1cc(F)c2[nH]c(CCCCCCCC[n+]3ccccc3)cc2c1 [Compound 305]
[2]
  % Inhibition: 54.83%

## O=[N+]([O-])c1ccc2[nH]c(CCC[n+]3ccc4ccccc4c3)cc2c1 [Compound 546]
Compound at 0.1 mM (Table 314)
  % Inhibition: 4.72%

## COC(=O)c1cc2cc(OCc3ccccc3)ccc2n1CCCCCCCOC(=O)Cc1ccc([N+](C)(C)C)cc1 [compound 1105]
[1]
  % Inhibition: 167%

## FC(F)(F)c1ccc2[nH]c(CCCCCCC[n+]3cccc4ccccc43)cc2c1 [Compound 472]
Compound at 0.1 mM (Table 314)
  % Inhibition: 12.76%

## CN(C)c1ccc(CC(=O)OCCCCCCCCOc2ccc(C=CC(=O)c3ccccc3)cc2)cc1 [Compound 1034]
[1]
  % Inhibition: 30%

## c1ccc(Oc2ccc3[nH]c(CCCCCCC[n+]4ccccc4)cc3c2)cc1 [Compound 352]
Compound at 0.1 mM (Table 314)
  % Inhibition: 32.69%

## C[N+](C)(C)c1ccc(C(=O)OCCCCCCCc2cc3cc(Oc4ccccc4)ccc3[nH]2)cc1 [Compound 887]
  IC50: 25 µM

## O=C(c1ccccc1)c1ccc2[nH]c(CCCC[n+]3ccc4ccccc4c3)cc2c1 [Compound 571]
[2]
  % Inhibition: 17.47%

## CCCCc1ccc2[nH]c(CCCC[n+]3cccc4ccccc43)cc2c1 [Compound 421]
[2]
  % Inhibition: 1.86%

## C[n+]1cccc(CC(=O)OCCCCc2cc3cc(Oc4ccccc4)ccc3[nH]2)c1 [Compound 931]
Compound at 0.25 mM
  % Inhibition: 15.8%

## c1ccc2c[n+](CCCCCCCc3cc4ccccc4[nH]3)ccc2c1 [Compound 502]
[2]
  % Inhibition: 44.08%

## O=C(O)c1ccc2[nH]c(CCCC[n+]3ccccc3)cc2c1 [Compound 385]
[2]
  % Inhibition: 61.62%

## Cc1ccc2[nH]c(CCCCCCCC[n+]3ccccc3)cc2c1 [Compound 299]
[2]
  % Inhibition: 49.13%

## COc1ccccc1OCCCCCCCCOC(=O)Cc1ccc([N+](C)(C)C)cc1 [Compound 1087]
  IC50: 40 µM
  inhibition at 200 µM: 61%

## C[N+](C)(C)c1ccc(CC(=O)OCCCCCCCCCn2ccc3ccccc32)cc1 [Compound 982]
  IC50: 60 µM
  inhibition at 200 µM: 93.7%

## FC(F)(F)c1ccc2cc(CCCC[n+]3ccccc3)[nH]c2c1 [Compound 289]
[2]
  % Inhibition: 9.28%

## O=C(OCCCCCCCc1cc2ccc(C(F)(F)F)cc2[nH]1)c1ccncc1 [Compound 697]
[2]
  % Inhibition: 4.28%

## COc1ccc2[nH]c(CCCCCCC[n+]3ccccc3)cc2c1 [Compound 376]
Compound at 0.1 mM (Table 314)
  % Inhibition: 37.32%

## CN(C)c1ccc(CC(=O)OCCCCCCCCOc2ccccc2[N+](=O)[O-])cc1 [Compound 1024]
[1]
  % Inhibition: 45%

## O=C(O)c1ccc2[nH]c(CCCCCC[n+]3cccc4ccccc43)cc2c1 [Compound 495]
[2]
  % Inhibition: 6.80%

## C[n+]1cccc(C(=O)OCCCCCCCc2cc3cc(Oc4ccccc4)ccc3[nH]2)c1 [Compound 917]
  IC50: 60 µM
  inhibition at 250 µM: 88.9%

## Fc1cc(F)c2[nH]c(CCCCCCCC[n+]3cccc4ccccc43)cc2c1 [Compound 413]
[2]
  % Inhibition: 4.76%

## O=[N+]([O-])c1ccc2[nH]c(CCCCCC[n+]3cccc4ccccc43)cc2c1 [Compound 441]
[2]
  % Inhibition: 11.80%

## COC(=O)c1ccc2[nH]c(CCCCCCC[n+]3cccc4ccccc43)cc2c1 [Compound 490]
[2]
  % Inhibition: 2.96%

## C[N+](C)(C)c1ccc(C(=O)OCCCCc2cc3cc(Oc4ccccc4)ccc3[nH]2)cc1 [Compound 886]
  IC50: 80 µM
  inhibition at 100 µM: 94.5%

## c1ccc(C(c2ccccc2)(c2ccccc2)c2ccc3[nH]c(CCCCCC[n+]4ccc5ccccc5c4)cc3c2)cc1 [Compound 555]
[2]
  % Inhibition: 30.89%

## Cc1ccc2[nH]c(CCCCCCCC[n+]3cccc4ccccc43)cc2c1 [Compound 407]
[2]
  % Inhibition: 24.14%

## c1ccc(-c2ccc3[nH]c(CCCCCCC[n+]4cccc5ccccc54)cc3c2)cc1 [Compound 436]
[2]
  % Inhibition: 11.57%

## C[N+](C)(C)c1ccc(C(=O)OCCCCCCCCc2cc3ccc(C(F)(F)F)cc3[nH]2)cc1 [Compound 885]
Compound at 0.25 mM
  % Inhibition: 98.0%

## O=[N+]([O-])c1cc([N+](=O)[O-])c2[nH]c(CCCCCCC[n+]3ccccc3)cc2c1 [Compound 310]
[2]
  % Inhibition: 38.29%

## Cc1ccc2[nH]c(CCC[n+]3ccc4ccccc4c3)cc2c1 [Compound 510]
[2]
  % Inhibition: 20.99%

## COc1ccccc1OCCCCCCCCOC(=O)Cc1ccc(N(C)C)cc1 [Compound 1039]
[1]
  % Inhibition: 30%

## C[N+](C)(C)c1ccc(CC(=O)OCCCCCCCCOc2ccccc2[N+](=O)[O-])cc1 [Compound 1075]
[3]
  IC50: 65 µM
[1]
  % Inhibition: 79%

## CC(=O)c1ccc2[nH]c(CCCCCCCC[n+]3ccccc3)cc2c1 [Compound 371]
[2]
  % Inhibition: 43.85%

## COC(=O)c1cc2ccccc2n1CCCCCCCOC(=O)Cc1ccc(N(C)C)cc1 [Compound 960]
Compound at 0.05 mM
  % Inhibition: 6.37%

## C[n+]1cccc(C(=O)OCCCOc2ccc(C(=O)c3ccccc3)cc2)c1 [Compound 1068]
  IC50: 62.5 µM
  inhibition at 200 µM: 92%

## Cc1ccc2[nH]c(CCCCCCCC[n+]3ccc4ccccc4c3)cc2c1 [Compound 515]
[2]
  % Inhibition: 30.39%

## C[N+](C)(C)c1ccc(CC(=O)OCCCCCCCCOc2cccc(N3CCOCC3)c2)cc1 [Compound 1092]
[1]
  % Inhibition: 60%

## CC(=O)c1ccc2[nH]c(CCCCOC(=O)c3cccc([N+](C)(C)C)c3)cc2c1 [Compound 877]
Compound at 0.25 mM
  % Inhibition: 98.3%

## CCCCc1ccc2[nH]c(CCCCCCCC[n+]3ccccc3)cc2c1 [Compound 317]
Compound at 0.1 mM (Table 314)
  % Inhibition: 25.04%

## C[N+](C)(C)c1ccc(C(=O)OCCCCc2cc3cc(C(=O)c4ccccc4)ccc3[nH]2)cc1 [Compound 895]
Compound at 0.25 mM
  % Inhibition: 95.7%

## O=C(c1ccccc1)c1ccc2[nH]c(CCCCCCCC[n+]3cccc4ccccc43)cc2c1 [Compound 467]
[2]
  % Inhibition: 15.08%
